The target in test [1] is T1, IQGAP-1 (Cricetulus griseus, UniProt A0A8C2MPD4).
T1 construct: 5×10^7 CHO cells stably transfected with Hs-AT1R were lysed using RIPA buffer; endogenous in cells; host or cells: lysate of CHO cells stably transfected with Hs-AT1R
Kind of test: Pull-down on column coated with S391A-RAGE362-404, proteomic analysis. Format: binding. Conditions: lysate of CHO cells stably transfected with Hs-AT1R; NiNTA column; FIG. 11C. As to the method:
The TAT-Cherry-S391A-RAGE362-404 peptide and TAT-mCherry control peptide were bound to a gravity flow NiNTA column, and equilibrated using lysis buffer (50 mM Tris pH 7.5, 300 mM NaCl, 5 mM βB-mercaptoethanol, 10 mM imidazole. 5×10^7 CHO cells stably transfected with Hs-AT1R were lysed using RIPA buffer (1×PBS supplemented with 1% NP-40, 0.5% Na-deoxycholate with protease and phosphatase inhibitors), diluted to 50 ml in lysis buffer and passed over the Ni-NTA column twice by gravity flow. The 1 ml column was washed extensively (200 ml wash buffer-50 mM Tris pH 7.4, 300 mM NaCl, 5 mM β-mercaptoethanol, 20 mM imidazole). After washing, 2 ml of elution buffer (50 mM Tris pH 7.4, 300 mM NaCl, 5 mM β-mercaptoethanol, 250 mM imidazole) was applied to the column, and used to elute proteins that had bound to either the A peptide or TAT-mCherry control peptide. 1 ml of sample was delivered for proteomic analysis by Mass Spectroscopy. Venny 2.1.0 was used to generate lists of the proteins differentially bound to the two proteins.

Test [2] has as its system apoE KO mice. Kind of test: Induction of oxidative stress (plasma 8-OHdG ELISA, aortic NOX-1/NOX-4 RT-PCR). It counts as in vivo, mouse. To be noted: four-week infusion 1 μg/kg/min. The source says: Induction of Oxidative Stress
The induction of oxidative stress in each animal model was estimated by the measurement of plasma levels of 8-hydroxydeoxyguanosine using the OxiSelect Oxidative DNA Damage ELISA Kit (8-OHdG Quantitation; Cell Biolabs, Inc), and performed as per manufacturer's instructions. In addition, gene expression of the superoxide-producing NADPH oxidase subunits, NOX-1 and NOX-4 were quantitated in the aortae of mice using real time RT-PCR, as detailed above.

A short description of test [3]: Systolic BP measurement by tail-cuff plethysmography. Conditions: four-week infusion 1 μg/kg/min, both apoE KO and AGER/apoE DKO mice. It counts as in vivo, mouse. As to the method: Systolic blood pressure was measured by tail-cuff plethysmography in conscious, pre-warmed mice using a computerized, non-invasive, tail-cuff system (Kent Scientific, USA). Animals were habituated to the device before measuring the pressures to ensure accurate measurements.

Test [4] relates to apoE KO mice. Nature of the test: Aortic expression of pro-inflammatory mediators by quantitative real-time PCR (aortic homogenates). It counts as in vivo, mouse. To be noted: four-week infusion 1 μg/kg/min. As to the method: Aortic Expression of Pro-Inflammatory Mediators by Quantitative Real-Time PCR
(§1) At the end of each study period, thoracic and abdominal aortae were placed in TRIZOL, snap frozen and stored at −80° C. RNA extraction and cDNA synthesis was performed in aortic homogenates using the Trizol method. Gene expression of pro-atherogenic mediators including adhesion molecules, cytokines, inflammatory, oxidative stress and macrophage markers, were estimated in aortic homogenates by quantitative real-time RT-PCR, performed using the TaqMan system based on real-time detection of accumulated fluorescence (ABI Prism 7700, Perkin-Elmer Inc, PE Biosystems, Foster City, CA, USA). Gene expression was normalized to 18S mRNA and reported as fold change compared to the level of expression in untreated control mice/cells, which were given an arbitrary value of 1.
In general terms: Quantitative PCR measures a nucleic acid by following its amplification.

Test [5] relates to isolated aortae. Kind of test: Ex vivo exposure of isolated aortae to Ang II, expression of pro-atherogenic mediators by RT-PCR. To be noted: 1 μM. Further details: species or system mouse. As to the method: as §1
(§2) Ex Vivo Studies in Isolated Aortae
Aortae were isolated from apoE KO and AGER/apoE DKO mice, divided and placed in Krebs buffer and maintained at physiological pH by infusing carbogen gas (95% O2; 5% CO2) through the buffer at 37° C. Vessels (n=6/group) were then treated with Ang II (1 μM) for 4 hours. After which time, whole blood labelled with DilC18 (1:1000) was then perfused through the aorta at 0.12 ml/min. Images and videos of vessel wall-cell interactions were observed using a fluorescence microscope (Zeiss Discovery.V20), coupled to a digital camera ([…] ORCA-ER) and analysed with AxioVison software.

Test [6] deals with aortic endothelium. Nature of the test: Adherence of labelled leukocytes to aortae (dynamic flow assay). To be noted: ex vivo. Further details: species or system mouse. As to the method:
Adherence of Labelled Leukocytes to Aortae
After 1 week of a low sodium or normal sodium diet, apoE KO and AGER/apoE DKO animals were humanely killed and aortae were isolated, cleaned of fat and mounted in a vessel chamber primed with Krebs buffer and maintained at physiological pH by infusing carbogen gas (95% O2; 5% CO2) through the buffer at 37° C., as previously described. Whole blood labelled with DilC18 (1:1000) was then perfused through the aorta at 0.12 ml/min. As a positive control, vessels (n=6/group) were pre-treated with TNFα (4 ng/ml) for 4 hrs at 37° C. or Ang II (1 μM). Images and videos of vessel wall-cell interactions were acquired using a fluorescence microscope (Zeiss Discovery.V20), coupled to a digital camera ([…] ORCA-ER) and analysed with AxioVison software. Two to three frames were taken at each time point and the number of adherent cells per frame recorded.
as §2
Aortae were isolated from apoE KO and AGER/apoE DKO mice, divided and placed in Krebs buffer and maintained at physiological pH by infusing carbogen gas (95% O2; 5% CO2) through the buffer at 37° C. Vessels (n=6/group) were then treated with Ang II (1 μM) for 4 hours. […] Images and videos of vessel wall-cell interactions were observed using a fluorescence microscope (Zeiss Discovery.V20), coupled to a digital camera ([…] ORCA-ER) and analysed with AxioVison software.

Test [7] can be described thus: Circulating concentration of RAGE ligands (S100A8/A9, AGEs, methylglyoxal). Format: in vivo, mouse. Conditions: four-week infusion 1 μg/kg/min. As to the method:
Circulating Concentration of RAGE Ligands
Changes in circulating levels of RAGE ligands were assessed in animal models. S100A8/A9 levels were estimated by ELISA (Immundiagnostik, Germany) performed according to the manufacturer's instructions. Plasma AGEs were measured by in-house ELISA. Plasma methylglyoxal, a reactive precursor of AGEs, was measured by HPLC.

Test [8] concerns the target AT1 receptor (Homo sapiens, UniProt P30556). Kind of test: Receptor-HIT BRET, β-arrestin2/Venus with RAGE/Rluc8 and AT1 receptor. It counts as cell-based. As to the method:
The BRET ratio was calculated by subtracting the ratio of ‘acceptor emission’ over ‘donor emission’ for a cell sample expressing Rluc8-tagged protein alone from the same ratio for a cell sample expressing both Rluc8 and Venus-tagged proteins. Alternatively, the ligand-induced BRET signal was calculated by subtracting the ratio of ‘acceptor emission’ over ‘donor emission’ for a vehicle-treated cell sample from the same ratio for a second aliquot of the same cells treated with agonist.
The fluorescence/luminescence ratio was generated by dividing the fluorescence values in arbitrary units (obtained with the EnVision) by the luminescence values also in arbitrary units (obtained as part of the BRET assay).
(In general: BRET reads energy transfer from a luciferase to a nearby fluorophore.)

The values that follow come from patent US12060408B2, “Screening assays, modulators and modulation of activation of Receptor for Advanced Glycation End-products (RAGE)” (Monash University, priority 2017, dated 2024).

Sequence of AT1 receptor (P30556 whole entry): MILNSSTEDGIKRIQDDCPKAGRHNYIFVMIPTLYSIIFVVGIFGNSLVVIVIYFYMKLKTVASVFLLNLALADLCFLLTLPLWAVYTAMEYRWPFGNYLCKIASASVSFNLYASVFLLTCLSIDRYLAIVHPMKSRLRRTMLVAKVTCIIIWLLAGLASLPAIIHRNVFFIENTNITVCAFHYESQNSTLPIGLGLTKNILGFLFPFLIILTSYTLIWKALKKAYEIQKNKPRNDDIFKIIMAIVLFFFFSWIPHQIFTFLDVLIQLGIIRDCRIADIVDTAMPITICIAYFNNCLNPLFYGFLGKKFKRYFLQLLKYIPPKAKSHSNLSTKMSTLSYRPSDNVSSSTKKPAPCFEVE
Sequence of AT1 receptor (P32121 whole entry partner): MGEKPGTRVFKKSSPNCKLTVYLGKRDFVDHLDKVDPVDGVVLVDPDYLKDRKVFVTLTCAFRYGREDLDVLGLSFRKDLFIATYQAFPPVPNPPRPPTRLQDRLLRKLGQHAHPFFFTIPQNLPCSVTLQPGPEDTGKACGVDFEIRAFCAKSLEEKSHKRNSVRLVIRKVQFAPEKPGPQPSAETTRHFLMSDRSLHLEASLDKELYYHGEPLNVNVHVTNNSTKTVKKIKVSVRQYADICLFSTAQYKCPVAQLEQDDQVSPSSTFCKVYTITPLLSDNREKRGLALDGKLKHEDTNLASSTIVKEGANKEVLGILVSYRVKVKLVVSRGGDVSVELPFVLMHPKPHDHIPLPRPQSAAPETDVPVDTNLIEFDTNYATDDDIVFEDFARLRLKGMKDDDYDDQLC
T1 sequence (A0A8C2MPD4 1-1657): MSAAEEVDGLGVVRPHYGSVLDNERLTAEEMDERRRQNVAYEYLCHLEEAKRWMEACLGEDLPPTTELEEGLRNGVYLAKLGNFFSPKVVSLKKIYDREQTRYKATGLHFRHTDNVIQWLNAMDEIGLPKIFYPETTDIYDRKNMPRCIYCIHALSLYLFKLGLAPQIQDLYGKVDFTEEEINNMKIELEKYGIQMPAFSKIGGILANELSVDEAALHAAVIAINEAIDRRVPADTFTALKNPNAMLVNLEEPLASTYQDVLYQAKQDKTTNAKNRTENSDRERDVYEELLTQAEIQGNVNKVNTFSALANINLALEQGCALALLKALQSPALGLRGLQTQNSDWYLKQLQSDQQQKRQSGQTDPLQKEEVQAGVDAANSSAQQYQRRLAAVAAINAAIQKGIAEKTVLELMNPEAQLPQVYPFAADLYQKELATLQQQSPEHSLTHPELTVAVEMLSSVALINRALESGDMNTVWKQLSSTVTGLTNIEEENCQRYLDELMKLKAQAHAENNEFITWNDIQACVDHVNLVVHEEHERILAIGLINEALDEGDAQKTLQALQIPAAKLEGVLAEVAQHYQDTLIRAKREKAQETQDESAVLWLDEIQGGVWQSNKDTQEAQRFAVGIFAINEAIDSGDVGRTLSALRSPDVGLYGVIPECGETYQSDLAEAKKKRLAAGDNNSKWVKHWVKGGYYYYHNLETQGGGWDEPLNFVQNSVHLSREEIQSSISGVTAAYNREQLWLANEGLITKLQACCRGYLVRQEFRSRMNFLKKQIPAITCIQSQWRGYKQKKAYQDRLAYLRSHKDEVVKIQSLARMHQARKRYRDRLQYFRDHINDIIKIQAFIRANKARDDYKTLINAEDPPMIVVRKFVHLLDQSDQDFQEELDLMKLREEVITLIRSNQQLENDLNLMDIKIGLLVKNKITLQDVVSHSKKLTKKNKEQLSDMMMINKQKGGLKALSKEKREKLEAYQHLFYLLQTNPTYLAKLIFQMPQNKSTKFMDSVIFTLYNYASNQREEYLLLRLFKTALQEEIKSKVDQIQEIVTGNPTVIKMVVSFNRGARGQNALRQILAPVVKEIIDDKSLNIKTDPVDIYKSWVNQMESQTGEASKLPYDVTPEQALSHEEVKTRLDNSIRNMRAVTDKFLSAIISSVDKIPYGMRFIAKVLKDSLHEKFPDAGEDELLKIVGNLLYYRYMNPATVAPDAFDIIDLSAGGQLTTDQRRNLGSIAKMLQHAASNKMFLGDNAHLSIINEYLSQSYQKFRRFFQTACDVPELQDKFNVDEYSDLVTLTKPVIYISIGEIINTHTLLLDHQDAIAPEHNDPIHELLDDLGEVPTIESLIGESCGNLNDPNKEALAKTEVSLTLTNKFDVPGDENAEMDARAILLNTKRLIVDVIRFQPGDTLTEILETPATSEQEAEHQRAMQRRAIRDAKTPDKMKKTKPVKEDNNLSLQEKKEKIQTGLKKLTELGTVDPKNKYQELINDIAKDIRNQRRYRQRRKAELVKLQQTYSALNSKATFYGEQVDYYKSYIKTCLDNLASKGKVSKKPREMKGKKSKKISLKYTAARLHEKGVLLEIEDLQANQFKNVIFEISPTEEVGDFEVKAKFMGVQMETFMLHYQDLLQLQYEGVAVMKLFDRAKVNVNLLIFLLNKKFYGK

Take “L362WQRRQRRGEERKAPENQEEEEERAELNQAEEPEAGESSTGGP404 (LWQRRQRRGEERKAPENQEEEEERAELNQAEEPEAGESSTGGP; listed as Homo sapiens) [S391A-RAGE362-404, S391A mutant RAGE cytosolic tail; non-functional substitute for RAGE]”: the “association with IQGAP-1 (pull-down)” value in test [1] is “preferentially associates with IQGAP-1”.

In the case of “angiotensin II (DRVYIHPF) [Ang II, cognate ligand of AT1R]”, the oxidative stress result in test [2] (AGER/apoE DKO mice) is “preventing”. Besides, the “markers of oxidative stress” value in test [2] (apoE KO mice) is listed as “increases”. The systolic blood pressure result in test [3] is listed as “increased to a similar extent”. Also, in test [4] (AGER/apoE DKO mice), the “aortic expression of pro-atherogenic mediators” value is “preventing”. In test [4] (apoE KO mice), the “aortic expression of genes coding for pro-atherogenic mediators” value was “increases”. In addition, the “induction of atherogenic mediators” value in test [5] (aortae from AGER/apoE DKO mice) is given as “prevents”. In addition, the “expression of pro-atherogenic mediators” value in test [5] (isolated aortae from apoE KO mice) is recorded as “increases”. Moreover, in test [6] (aortae from AGER/apoE DKO mice, 1 μM), the “endothelial adhesiveness of primed leucocytes” value is given as “prevents”. Moreover, in test [6] (aortae from apoE KO mice, 1 μM vs untreated), the “number of adherent leukocytes” value is reported as “increased number of adherent leukocytes”. The “circulating levels of RAGE ligands” value in test [7] (AGER/apoE DKO mice) is “preventing”. Moreover, in test [7] (apoE KO mice), the “circulating levels of RAGE ligands (S100A8/A9, AGEs, dicarbonyl precursors)” value is reported as “increases”. Also, the “recruitment of βarrestin2/Venus to AT1/Rluc8” value in test [8] (control) is on record as “recruitment”. Further, in test [8] (in the presence of AT1 receptor), the “recruitment of β-arrestin2/Venus proximal to RAGE/Rluc8” value is listed as “recruitment”.
